Source: patent US20100028447A1, “Intranasal, Buccal, And Sublingual Administration Of Metanicotine Analogs” (TARGACEPT, INC., priority 2007, published 2010)
Where “and” joins values, the source holds several entries; their conditions need not be identical. Equal values may be shown once. Read-outs that look alike come from different tables or passages of the source.

Assay: Brain-to-plasma ratio of Compound C after oral gavage or intranasal administration (Example 5)
Assay type: in vivo, Sprague-Dawley rats
Conditions: for concentration at 10 min / concentration at 30 min / concentration at 60 min / Kp at […] / Kp at 0.5 h / Kp at 1 h: Sprague-Dawley
Protocol: Three treatment groups of nine rats each were used (see Study Design, Table 9). […] The animals were housed up to three per cage and identified by cage labels. A single room was used for this study. […] Food was withheld from the animals for a minimum of 12 hours before the study and during the study, and was returned at 4 hours post-dose. Water was supplied ad libitum during the study.
All dosing solutions were prepared in isotonic PBS (phosphate buffered saline) buffer at pH 7.4. […] For intranasal dosing, the animals were anesthetized with CO2 prior to dosing, and the solution was administered in a 25 μL droplet from a pipette.
For each treatment group, brain and plasma samples were collected at 10, 30 and 60 minutes post-dose. Blood samples were placed in heparinized tubles and spun at 13,000 rpm for 5 minutes. The plasma was placed in polyethylene tubes and frozen (−60 to −80° C.). Brain samples were also placed in chilled tubes and frozen (−60 to −80° C.). Samples remained chilled during subsequent processing.
Brain samples were thawed and weighed. […] After homogenation, the volume of each sample was recorded and the samples were frozen at −80° C. until analysis.
Plastic tubes were used for all steps. Standards were prepared at concentrations of 1000, 500, 250, 100, 50, 10, 5, and 1 ng/mL by serial dilution. Quality control samples were also prepared at 500, 100, and 5 ng/mL. […] Brain standards and quality control samples were treated identically to the test compound samples.
(§1) Brain samples (200 μL) were loaded onto a 96 well plate and then transferred to 400 μL of acetonitrile containing internal standard (100 ng/mL Pindolol) in a Sirocco Protein Precipitation Plate (Waters Corporation). The resulting suspensions were mixed, then filtered into a clean 96-well collection plate using a vacuum and transferred (100 μL) to plastic HPLC vials for analysis.
as §1, with “(50” for “(200”, “150” for “400”

[1] = 1 mg/kg intranasal dose, 10 min
[2] = 1 mg/kg intranasal dose, 30 min
[3] = 1 mg/kg intranasal dose, 60 min
[4] = 5 mg/kg intranasal dose, 10 min
[5] = 5 mg/kg intranasal dose, 60 min

Brain-to-Plasma Ratio [1]: 1.55 and 1.68 | Mean Ratio (brain-to-plasma) [1]: 1.97 | Brain-to-Plasma Ratio [2]: 1.69 and 2.36 | Mean Ratio (brain-to-plasma) [2]: 2.27 | Plasma Conc. [2]: 118 ng/mL and 86.8 ng/mL | Brain-to-Plasma Ratio [3]: 1.86 and 2.57 | Mean Ratio (brain-to-plasma) [3]: 2.12 | Plasma Conc. [3]: 66 ng/mL and 37.8 ng/mL | Brain-to-Plasma Ratio [4]: 0.99 | Plasma Conc. [4]: 1570 ng/mL and 1700 ng/mL | Brain-to-Plasma Ratio (5 mg/kg intranasal dose, 30 min): 3.58 and 2.11 | Brain-to-Plasma Ratio [5]: 3.26 and 1.95 | Mean Ratio (brain-to-plasma) [5]: 2.41 | Plasma Conc. [5]: 175 ng/mL and 119 ng/mL | Brain-to-Plasma Ratio (5 mg/kg oral dose, 30 min): 2.65 and 1.67 | Mean Ratio (brain-to-plasma) (5 mg/kg oral dose, 30 min): 2.21 | Brain-to-Plasma Ratio (5 mg/kg oral dose, 60 min): 3.95 | Mean Ratio (brain-to-plasma) (5 mg/kg oral dose, 60 min): 3.55 | 5 mg/kg IN/5 mg/kg PO, Brain (30 min): 1.0 | 5 mg/kg IN/5 mg/kg PO, Plasma (30 min): 0.7 | 5 mg/kg IN/5 mg/kg PO, Brain (60 min): 0.7 | 5 mg/kg IN/5 mg/kg PO, Plasma (60 min): 1.0 | concentration at 10 min (rat, brain homogenate, oral, 5 mg/kg, 5 mg/kg oral dose, 10 min, read-out: Brain Conc.): 45.4 ng/mL | concentration at 30 min (rat, brain homogenate, oral, 5 mg/kg, 5 mg/kg oral dose, 30 min, read-out: Brain Conc.): 205 ng/mL | concentration at 10 min (rat, brain homogenate, other: intranasal, 1 mg/kg, 1 mg/kg intranasal dose, 10 min, read-out: Brain Conc.): 47.6 ng/mL | concentration at 30 min (rat, brain homogenate, other: intranasal, 1 mg/kg, 1 mg/kg intranasal dose, 30 min, read-out: Brain Conc.): 43.7 ng/mL | concentration at 60 min (rat, brain homogenate, other: intranasal, 1 mg/kg, 1 mg/kg intranasal dose, 60 min, read-out: Brain Conc.): 17.7 ng/mL | concentration at 10 min (rat, brain homogenate, other: intranasal, 5 mg/kg, 5 mg/kg intranasal dose, 10 min, read-out: Brain Conc.): 269 ng/mL | Kp at […] (rat, brain, inhaled or intranasal, 1 mg/kg, 1 mg/kg intranasal dose, 10 min, read-out: Mean Ratio (brain-to-plasma)): 2 | Kp at 0.5 h (rat, brain, inhaled or intranasal, 1 mg/kg, 1 mg/kg intranasal dose, 30 min, read-out: Mean Ratio (brain-to-plasma)): 2.8 | Kp at 1 h (rat, brain, inhaled or intranasal, 1 mg/kg, 1 mg/kg intranasal dose, 60 min, read-out: Mean Ratio (brain-to-plasma)): 2.4 | Kp at […] (rat, brain, inhaled or intranasal, 5 mg/kg, 5 mg/kg intranasal dose, 10 min, read-out: Mean Ratio (brain-to-plasma)): 1.2 | Kp at 0.5 h (rat, brain, inhaled or intranasal, 5 mg/kg, 5 mg/kg intranasal dose, 30 min, read-out: Mean Ratio (brain-to-plasma)): 2.8 | Kp at 1 h (rat, brain, inhaled or intranasal, 5 mg/kg, 5 mg/kg intranasal dose, 60 min, read-out: Mean Ratio (brain-to-plasma)): 2.4 | concentration at 10 min (rat, brain, oral, 5 mg/kg, 5 mg/kg oral dose, 10 min, read-out: Brain Conc.): 227 ng/g | concentration at 30 min (rat, brain, oral, 5 mg/kg, 5 mg/kg oral dose, 30 min, read-out: Brain Conc.): 1020 ng/g | concentration at 10 min (rat, brain, other: intranasal, 1 mg/kg, 1 mg/kg intranasal dose, 10 min, read-out: Brain Conc.): 238 ng/g | concentration at 30 min (rat, brain, other: intranasal, 1 mg/kg, 1 mg/kg intranasal dose, 30 min, read-out: Brain Conc.): 219 ng/g | concentration at 60 min (rat, brain, other: intranasal, 1 mg/kg, 1 mg/kg intranasal dose, 60 min, read-out: Brain Conc.): 89 ng/g | concentration at 10 min (rat, brain, other: intranasal, 1 mg/kg, intranasal 1 mg/kg, 10 minutes, read-out: Average brain levels): 136 ng/g | concentration at 30 min (rat, brain, other: intranasal, 1 mg/kg, intranasal 1 mg/kg, 30 minutes, read-out: Average brain levels): 95 ng/g | concentration at 60 min (rat, brain, other: intranasal, 1 mg/kg, intranasal 1 mg/kg, 60 minutes, read-out: Average brain levels): 50 ng/g | concentration at 10 min (rat, brain, other: intranasal, 5 mg/kg, 5 mg/kg intranasal dose, 10 min, read-out: Brain Conc.): 1340 ng/g | concentration at 10 min (rat, brain, other: intranasal, 5 mg/kg, intranasal 5 mg/kg, 10 minutes, read-out: Average brain levels): 1750 ng/g | concentration at 30 min (rat, brain, other: intranasal, 5 mg/kg, intranasal 5 mg/kg, 30 minutes, read-out: Average brain levels): 1160 ng/g | concentration at 60 min (rat, brain, other: intranasal, 5 mg/kg, intranasal 5 mg/kg, 60 minutes, read-out: Average brain levels): 382 ng/g | concentration at 10 min (rat, brain, po, 5 mg/kg, oral gavage 5 mg/kg, 10 minutes, read-out: Average brain levels): 225 ng/g | concentration at 30 min (rat, brain, po, 5 mg/kg, oral gavage 5 mg/kg, 30 minutes, read-out: Average brain levels): 1170 ng/g | concentration at 60 min (rat, brain, po, 5 mg/kg, oral gavage 5 mg/kg, 60 minutes, read-out: Average brain levels): 571 ng/g | Kp at […] (rat, brain/plasma, inhaled or intranasal, 1 mg/kg, 1 mg/kg intranasal dose, 10 min, read-out: Brain-to-Plasma Ratio): 2.7 | Kp at 0.5 h (rat, brain/plasma, inhaled or intranasal, 1 mg/kg, 1 mg/kg intranasal dose, 30 min, read-out: Brain-to-Plasma Ratio): 2.78 | Kp at 1 h (rat, brain/plasma, inhaled or intranasal, 1 mg/kg, 1 mg/kg intranasal dose, 60 min, read-out: Brain-to-Plasma Ratio): 1.92 | Kp at […] (rat, brain/plasma, inhaled or intranasal, 5 mg/kg, 5 mg/kg intranasal dose, 10 min, read-out: Brain-to-Plasma Ratio): 1.42 | Kp at 0.5 h (rat, brain/plasma, inhaled or intranasal, 5 mg/kg, 5 mg/kg intranasal dose, 30 min, read-out: Brain-to-Plasma Ratio): 2.63 | Kp at 1 h (rat, brain/plasma, inhaled or intranasal, 5 mg/kg, 5 mg/kg intranasal dose, 60 min, read-out: Brain-to-Plasma Ratio): 2.03 | Kp at […] (rat, brain/plasma, po, 5 mg/kg, 5 mg/kg oral dose, 10 min, read-out: Mean Ratio (brain-to-plasma)): 0.8 | Kp at 0.5 h (rat, brain/plasma, po, 5 mg/kg, 5 mg/kg oral dose, 30 min, read-out: Brain-to-Plasma Ratio): 2.31 | Kp at 0.5 h (rat, brain/plasma, po, 5 mg/kg, 5 mg/kg oral dose, 30 min, read-out: Mean Ratio (brain-to-plasma)): 2.2 | Kp at 1 h (rat, brain/plasma, po, 5 mg/kg, 5 mg/kg oral dose, 60 min, read-out: Brain-to-Plasma Ratio): 3.89 | Kp at 1 h (rat, brain/plasma, po, 5 mg/kg, 5 mg/kg oral dose, 60 min, read-out: Mean Ratio (brain-to-plasma)): 3.5 | Kp at […] (rat, brain/plasma, po, 5 mg/kg, 10 min, read-out: 5 mg/kg IN/5 mg/kg PO, Ratio (brain to plasma)): 1.5 | Kp at 0.5 h (rat, brain/plasma, po, 5 mg/kg, 30 min, read-out: 5 mg/kg IN/5 mg/kg PO, Ratio (brain to plasma)): 1.3 | Kp at 1 h (rat, brain/plasma, po, 5 mg/kg, 60 min, read-out: 5 mg/kg IN/5 mg/kg PO, Ratio (brain to plasma)): 0.7 | concentration at 30 min (rat, plasma, other: intranasal, 1 mg/kg, 1 mg/kg intranasal dose, 30 min, read-out: Plasma Conc.): 78.7 ng/mL | concentration at 60 min (rat, plasma, other: intranasal, 1 mg/kg, 1 mg/kg intranasal dose, 60 min, read-out: Plasma Conc.): 46 ng/mL | concentration at 10 min (rat, plasma, other: intranasal, 1 mg/kg, intranasal 1 mg/kg, 10 minutes, read-out: Average plasma levels): 250 ng/mL | concentration at 30 min (rat, plasma, other: intranasal, 1 mg/kg, intranasal 1 mg/kg, 30 minutes, read-out: Average plasma levels): 208 ng/mL | concentration at 60 min (rat, plasma, other: intranasal, 1 mg/kg, intranasal 1 mg/kg, 60 minutes, read-out: Average plasma levels): 103 ng/mL | concentration at 10 min (rat, plasma, other: intranasal, 5 mg/kg, 5 mg/kg intranasal dose, 10 min, read-out: Plasma Conc.): 1120 ng/mL | concentration at 60 min (rat, plasma, other: intranasal, 5 mg/kg, 5 mg/kg intranasal dose, 60 min, read-out: Plasma Conc.): 170 ng/mL | concentration at 10 min (rat, plasma, other: intranasal, 5 mg/kg, intranasal 5 mg/kg, 10 minutes, read-out: Average plasma levels): 1460 ng/mL | concentration at 30 min (rat, plasma, other: intranasal, 5 mg/kg, intranasal 5 mg/kg, 30 minutes, read-out: Average plasma levels): 421 ng/mL | concentration at 60 min (rat, plasma, other: intranasal, 5 mg/kg, intranasal 5 mg/kg, 60 minutes, read-out: Average plasma levels): 155 ng/mL | concentration at 10 min (rat, plasma, po, 5 mg/kg, oral gavage 5 mg/kg, 10 minutes, read-out: Average plasma levels): 312 ng/mL | concentration at 30 min (rat, plasma, po, 5 mg/kg, oral gavage 5 mg/kg, 30 minutes, read-out: Average plasma levels): 578 ng/mL | concentration at 60 min (rat, plasma, po, 5 mg/kg, oral gavage 5 mg/kg, 60 minutes, read-out: Average plasma levels): 155 ng/mL | Intranasal absorption into the brain and bloodstream compared with oral administration (rat, in vivo, po): much faster
SMILES: CN[C@@H](C)C/C=C/c1cncc(OC(C)C)c1 [Compound C, (2S)-(4E)-N-methyl-5-(3-(5-isopropoxypyridin)yl)-4-penten-2-amine]
